Data on 5 molecules can be found in publication PMC12293521 (Current Issues in Molecular Biology, 2025).

Molecules are shown by their SMILES.

Assay [1] is described as follows: Ferric-reducing antioxidant power (FRAP) assay. Particulars: concentration for 50% of maximal ferric-reducing capacity; mean ± SD, triplicate. The procedure: The antioxidant capacity of the tested compounds was evaluated using the ferric-reducing antioxidant power (FRAP) assay, based on the reduction of ferric-tripyridyltriazine (Fe^3+-TPTZ) complex to its ferrous form (Fe^2+), resulting in a blue-colored product with a maximum absorbance at 593 nm. The assay was performed according to the modified method of Benzie and Strain [13], with modifications for microplate format and adjusted concentration ranges according to Rodrigues et al.. The FRAP working solution was freshly prepared by mixing 300 mM acetate buffer (pH 3.6), 10 mM TPTZ in 40 mM HCl, and 20 mM FeCl3·6H2O in a 10:1:1 volume ratio. The mixture was warmed to 37 °C before use to ensure optimal reaction conditions. For each reaction, 180 µL of the freshly prepared FRAP reagent was added to a well of a 96-well microplate, followed by 20 µL of the test compound at different concentrations (1–200 µg/mL) prepared in methanol. The mixture was incubated at 37 °C for 30 min. The increase in absorbance was measured at 593 nm using a microplate reader. […] All measurements were performed in triplicate and presented as the mean ± standard deviation.

Assay [2] can be described thus: ABTS radical-scavenging assay. As to conditions: mean ± SD. The protocol: The ABTS assay was determined according to Elbouzidi et al., with some modifications. The stock solutions included 7.4 mM ABTS and 2.6 mM potassium persulfate. ABTS radical cation was prepared by mixing the two stock solutions in equal quantities and allowed to stand for 16 h at room temperature in the dark. And then, ABTS radical solution was adjusted with phosphate-buffered saline (pH 7.4) to an absorbance of 0.7–0.8 at 734 nm. For this assay, 190 μL of ABTS radical solution was mixed with 10 μL of each test sample solution in 96-well plates. After 60 min, the decrease of absorbance was measured at 734 nm using a microplate reader (Thermo Fisher Scientific Inc., Waltham, MA, USA). The standard curve was linear between 0.025 and 0.9 mM Trolox. […] Additional dilution was needed if the ABTS value measured was over the linear range of the standard curve.

The target of assay [3] is T1, α-amylase from porcine pancreas (Sus scrofa, UniProt P00690).
T1 construct: purchased Sigma Aldrich; host or cells: porcine pancreas
T1 sequence (P00690 16-511): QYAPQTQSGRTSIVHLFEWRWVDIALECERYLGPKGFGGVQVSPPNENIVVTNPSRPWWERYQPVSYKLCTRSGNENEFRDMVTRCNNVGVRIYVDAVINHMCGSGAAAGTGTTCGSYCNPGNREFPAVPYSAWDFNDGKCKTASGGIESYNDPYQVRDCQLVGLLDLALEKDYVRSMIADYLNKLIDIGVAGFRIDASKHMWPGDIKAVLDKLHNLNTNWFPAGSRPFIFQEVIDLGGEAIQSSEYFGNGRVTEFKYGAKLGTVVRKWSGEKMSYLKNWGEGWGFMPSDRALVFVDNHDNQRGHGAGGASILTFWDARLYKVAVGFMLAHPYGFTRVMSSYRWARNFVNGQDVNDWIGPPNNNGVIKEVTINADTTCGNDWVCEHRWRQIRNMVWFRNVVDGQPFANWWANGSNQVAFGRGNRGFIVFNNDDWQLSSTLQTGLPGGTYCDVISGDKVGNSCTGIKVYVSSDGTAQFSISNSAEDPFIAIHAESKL
Put plainly: α-amylase inhibition assay (CNPG3 substrate). Particulars: experimental; means ± SD of three independent replicates; read-out: AAI IC50 (α-amylase inhibition) (converted). In kind it is biochemical. The procedure: (§1) Aldose Reductase Inhibitor Screening Kit (Biovision, Milpitas, CA, USA) was used for the aldose reductase inhibition assay.
A pre-incubation mixture was prepared which contained 40 mM phosphate buffer (pH 6.9) together with different concentrations (1, 5, 10, 50, 100, 200 µg/mL) of the compounds. A 0.2 U of α-amylase enzyme was added to this mixture, and the plate was then incubated for 15 min at 37 °C. Then, 2-chloro-4-nitrophenyl maltotrioside (CNPG3) substrate was added, where the final concentration was 0.9 µmole/mL. […] A control which was devoid of the compounds was also run in parallel.

Assay [4] can be described thus: Cupric ion-reducing antioxidant capacity (CUPRAC) assay. As to conditions: concentration for 50% of maximal cupric-reducing activity; mean ± SD, triplicate. The procedure: The total antioxidant capacity of the tested monoterpenes was also assessed using the Cupric ion-reducing antioxidant capacity (CUPRAC) assay, which measures the ability of antioxidants to reduce the Cu^2+-neocuproine complex to the stable-colored Cu^+-neocuproine chelate, absorbing at 450 nm. The assay was carried out following the protocol provided by the CUPRAC assay kit (Bioquochem, Asturias, Spain), with slight modifications to accommodate the tested compounds according to Salem et al.. The CUPRAC working solution consisted of a mixture of copper (II) chloride (10 mM), neocuproine (7.5 mM), and ammonium acetate buffer (1 M, pH 7.0) in a 1:1:1 volume ratio. For the assay, 40 µL of each test solution (prepared in methanol at concentrations ranging from 1 to 200 µg/mL) was added to 200 µL of the CUPRAC working solution in a well of a 96-well plate. The plate was incubated at room temperature for 30 min in the dark to allow full color development. The absorbance was then measured at 450 nm using a microplate spectrophotometer (Thermo Fisher Scientific Inc., Waltham, MA, USA). […] All tests were conducted in triplicate, and results are presented as mean ± SD.

Assay [5] addresses T2, aldose reductase (Homo sapiens, UniProt P15121).
T2 construct: purchased Biovision, Milpitas, CA, USA
Nature of the assay: aldose reductase inhibition assay (Aldose Reductase Inhibitor Screening Kit). In kind it is biochemical. Particulars: experimental; means ± SD of three independent replicates; read-out: ALR IC50 (aldose reductase inhibition) (converted). The procedure:
Aldose Reductase Inhibitor Screening Kit (Biovision, Milpitas, CA, USA) was used for the aldose reductase inhibition assay. Determination of the aldose reductase inhibitory effectiveness of the investigated compounds was performed kinetically using the Aldose Reductase Inhibitor Screening Kit (Biovision, Milpitas, CA, USA), according to the manufacturer's protocol. The decrease in the absorption of NADPH at 340 nm was measured in a mixture containing NADPH, the enzyme, and its substrate, […], in addition to test samples [21]. […] After incubation, 40 μL of enzyme substrate in assay buffer was added, and the absorbance was measured at 340 nm kinetically for 60-90 min at 37 °C. A background control free from the enzyme was run and subtracted from the readings. The IC50 was calculated and presented for the samples and the standard.

The target in assay [6] is T3, porcine pancreatic lipase (Sus scrofa, UniProt P00591).
T3 construct: purchased Sigma Aldrich
T3 sequence (P00591 1-450): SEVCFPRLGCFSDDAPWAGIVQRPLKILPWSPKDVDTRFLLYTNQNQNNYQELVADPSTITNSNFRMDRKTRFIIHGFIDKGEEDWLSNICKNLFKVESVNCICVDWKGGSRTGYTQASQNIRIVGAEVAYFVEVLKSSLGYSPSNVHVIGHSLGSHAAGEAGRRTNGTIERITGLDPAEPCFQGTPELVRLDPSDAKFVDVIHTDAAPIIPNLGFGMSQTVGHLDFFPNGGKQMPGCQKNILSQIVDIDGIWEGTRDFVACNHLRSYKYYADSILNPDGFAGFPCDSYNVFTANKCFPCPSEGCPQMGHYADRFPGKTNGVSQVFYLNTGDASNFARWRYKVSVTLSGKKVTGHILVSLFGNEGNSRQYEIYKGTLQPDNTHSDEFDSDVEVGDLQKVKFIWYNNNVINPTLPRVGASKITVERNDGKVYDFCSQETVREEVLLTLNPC
Nature of the assay: porcine pancreatic lipase inhibition assay (PNPB substrate). It counts as biochemical. As to conditions: experimental; means ± SD of three independent replicates; read-out: LIP IC50 (lipase inhibition) (converted). The protocol: as §1
The porcine pancreatic lipase inhibition assay was utilized in this work, with modifications made based on a previous study. A stock solution of each compound at 1 mg/mL in 10% DMSO was used to prepare […] with concentrations 1, 5, 10, 50, 100, 200 µg/mL by means of dilution with methanol. Just before usage, the pancreatic lipase enzyme was freshly produced as a 1 mg/mL stock solution. […] In individual test tubes, 0.1 mL of porcine pancreatic lipase (1 mg/mL) was mixed with 0.2 mL of each compound concentration. To achieve a final volume of 1 mL, the Tri-HCl solution (pH 7.4) was added, and the mixtures were incubated at 25 °C for 15 min. Following the incubation, 0.1 mL of PNPB solution was introduced to each test tube. The mixtures were once again incubated for 30 min at 37 °C. […] All tests were conducted in triplicate, and the inhibition was calculated as per Equation (1).(1) %Lipase Inhibition=AB−AE/AB×100 where AB is the recorded absorbance of the blank solution, and AE is the recorded absorbance of the compound’s solution.

For assay [7], the target named is α-glucosidase enzyme from Saccharomyces cerevisiae. Nature of the assay: α-glucosidase inhibition assay (PNP-G substrate). In kind it is biochemical. As to conditions: experimental; means ± SD of three independent replicates. The procedure:
as §1
The activity of the compounds was assessed spectrophotometrically according to Li et al., with slight modifications. In a volume of 100 µL of 40 mM phosphate buffer (pH 6.9), different concentrations (1, 5, 10, 50, 100, 200 µg/mL) of the compounds were prepared. The tested samples were added to a reaction mixture in a 96-well microplate containing 20 µL of the phosphate buffer and 20 µL of 5 mM p-nitrophenyl α -D-glucopyranoside (PNP-G) in the buffer. […] The IC50 for test compounds as well as the standard was calculated and presented.

Broadly, the IC50 is the concentration needed to halve the response being measured. As to `C=CCc1ccc(O)c(OC)c1` [Eugenol], in assay [1], the “FRAP EC50” value came out at 78.55 ± 8.74 µg/mL. Besides, in assay [2], the “ABTS IC50” value came out at 19.42 ± 0.58 µg/mL. Further, the IC50 in assay [3] is 0.339 mM; in assay [5] it was 241 µM; in assay [6], 388 µM. Moreover, in assay [4], the “CUPRAC IC50” value stood at 39.53 ± 2.83 µg/mL. Also, the “AGI IC50 (α-glucosidase inhibition)” value in assay [7] is on record as 84.93 ± 6.14 µg/mL.
As to `CC1=CCC(C(C)(C)O)CC1` (stereo not drawn) [Terpineol, α-terpineol], the “FRAP EC50” value in assay [1] is listed as 389.01 ± 9.53 µg/mL. The “ABTS IC50” value in assay [2] came out at 476.49 ± 19.93 µg/mL. Moreover, the IC50 was 1.74 mM in assay [3], 899 µM in assay [5] and 392 µM in assay [6]. The “AGI IC50 (α-glucosidase inhibition)” value in assay [7] came to 340.42 ± 23.19 µg/mL.
With `Cc1cc(C(C)(C)C)c(O)c(C(C)(C)C)c1` [BHT, butylated hydroxytoluene, reference compound], the “FRAP EC50” value in assay [1] is reported as 63.88 ± 4.83 µg/mL. For the same molecule, the “ABTS IC50” value in assay [2] was determined as 153.55 ± 9.65 µg/mL.
For the molecule `CC12CCC(CC1=O)C2(C)C` (centres unmarked) [Camphor], the “FRAP EC50” value in assay [1] was determined as 1459.83 ± 39.96 µg/mL. The “ABTS IC50” value in assay [2] stood at 755.82 ± 67.30 µg/mL. In addition, the IC50 is 2.34 mM in assay [3], 1710 µM in assay [5] and 3540 µM in assay [6]. Besides, the “AGI IC50 (α-glucosidase inhibition)” value in assay [7] was determined as 484.95 ± 17.65 µg/mL.
As to `O=C1O[C@H]([C@@H](O)CO)C(O)=C1O` [AA, ascorbic acid, reference compound], the “FRAP EC50” value in assay [1] worked out at 56.92 ± 2.99 µg/mL. For the same molecule, the “ABTS IC50” value in assay [2] is given as 136.78 ± 5.97 µg/mL.
